According to patent US20080113347A1, “Method for the in Vitro Diagnosis and Prognosis of Demyelinating Diseases, and for the Development of Drugs Against Demyelinating Diseases” (priority 2003, published 2008):
d = 2'-deoxy (DNA); m = 2'-O-methyl

How the values were obtained:
dusp6 gene expression = experiment: Differential analysis of dusp6 gene expression in oligodendrocyte cultures with Rat Genome U34 DNA arrays; format: cell-based; set-up: key to Change: Increases (I); Decreases (D); undergoes No Change (NC); Marginally Increases (MI); Marginally Decreases (MD); key to Detection: Present (P); Absent (A); Marginal (M); conditions: for Ratio (=2^SLR): fold change vs untreated control; for Signal (dusp6, probe set U42627_at): arrays scaled to total intensity 100; for Change: vs control
Excerpt: Microarrays. The microarrays GeneChip Test 3 (Affymetrix, Santa Clara) were used which allow testing the quality of the RNA prior to the expression analysis with GeneChip Rat Genome U34 set (Affymetrix, Santa Clara), representing 3322 complete gene sequences. The dusp6 gene is represented in the microarray by probe set U42627_at of Affymetrix, which are sense oligonucleotides of 25 nucleotides in length designed on the basis of GeneBank U42627 sequence (Table 1).
Samples. The samples studied corresponded to primary oligodendrocyte cultures obtained from the optic nerve of 12-day old rats. To prevent inter-individual variations, each culture corresponded to a 10-animal cell pool. Treatments were made in duplicate with 10 μM AMPA (α-amino-3-hydroxy-5-methyl-4-isoxazolepropionic acid) or 3 μM kainate. The duration of treatments was 2, 10 and 15 minutes, the cells being collected immediately after treatment in the first two cases and 1 hour after the 15-minute treatment. Treatment for 10 and 15 minutes with AMPA and with kainate causes apoptosis, whereas 2-minute treatment was considered sublethal due to scarce treatment duration. After treatments, the cells were collected in TRIzol® Reagent (Life Technologies) and were stored at −80° C. until total RNA extraction.
The analysis was carried out with total RNA from oligodendrocyte cultures. Each sample corresponded to the mixture of total RNAs from two cultures and were called the following: control: untreated cultured oligodendrocytes ampa 2: oligodendrocytes treated for 2 minutes with 10 μM AMPA and collected after treatment ampa 10: oligodendrocytes treated for 10 minutes with 10 μM AMPA collected after treatment ampa 15: oligodendrocytes treated for 15 minutes with 10 μM AMPA and collected 60 minutes later Kainate 2: oligodendrocytes treated for 2 minutes with 3 μM kainate and collected after treatment Kainate 10: oligodendrocytes treated for 10 minutes with 3 μM kainate and collected after treatment Kainate 15: oligodendrocytes treated for 15 minutes with 3 μM kainate and collected 60 minutes later The total RNA of each one of the cultures was obtained by homogenizing the cells in TRIzol® Reagent (Life Technologies) following the supplier's recommendations. The resulting total RNA was cleaned with the RNeasy Mini kit (QIAGEN) (Chomczynski P. et al., Anal. Biochem., 1987, 162: 156; Chomczynski P., Biotechniques, 1993, 15: 532). 2 μg from each total RNA preparation were used as starting material for the synthesis of biotinylated cRNA with the MessageAmp™ aRNA kit (Ambion).
15 μg of each biotinylated cRNA were fragmented at 94° C. for 35 minutes in a buffer solution containing 40 mM Tris-Acetate (pH 8.1), 100 mM KOAc and 30 mM MgOAc. The fragmented cRNA was mixed with hybridization buffer (10 mM MES, 1M NaCl, 20 mM EDTA, 0.01% Tween 20) and was heated at 99° C. for 5 minutes and subsequently at 45° C. for 5 minutes, to then be loaded into the Affymetrix array. The first array in which hybridization was carried out was Affymetrix Test 3. This array allows testing the quality of the RNA prior to expression analysis in the Affymetrix® GeneChip® Rat Genome U34 set (RG-U34).
For hybridization, the arrays were incubated in a rotary oven at 45° C. for 16 hours and with a constant rotation of 60 rpm.
Washing and staining of each array was carried out in the Affymetrix® Fluidics Station. A washing and staining program was used which included:
The arrays were scanned at 560 nm using a confocal microscope using laser emission (Agilent GeneArray Scanner). Analysis of the intensity readings was carried out with Microarray Suite 5.0 software. To compare the arrays, the latter were scaled to a total intensity of 100.
Differential analysis of the dusp6 gene expression in the oligodendrocytes stimulated with regard to the control was carried out from the array comparison data obtained using the Affymetrix software. […]

oligodendrocytes = conditions: UO126 10 μM
Protocol: DUSP6 is a negative regulator of the MAPK/ERK signaling pathway which promotes cell survival, as documented above in the Background of the Invention section. Because of that, we tested if the pharmacological inhibition of this pathway potentiates oligodendrocyte death triggered by activation of AMPA receptors.
To block the MAPK/ERK pathway, oligodendrocytes were incubated with UO126, a dual MEK1 & 2 inhibitor, for 15 min prior to the excitotoxic stimulus. Subsequently, cells were exposed to AMPA 10 μM+CTZ 100 μM during 15 minutes in the presence or absence of UO126, and cell viability was assessed 24 h later by the MTT method.

[1] = system: oligodendrocytes treated with AMPA; experiment: Cell death inhibition in oligodendrocytes treated with AMPA after incubation with antisense oligonucleotides; format: cell-based, rat; conditions: ODN transfected with Lipofectin, stimulus 15 minutes, protecting effect assessed after 6 hours
Protocol: To evaluate if dusp6 expression blocking inhibits cell death of oligodendrocytes treated with AMPA, antisense oligonucleotides (ODNs) capable of blocking said gene expression were used. The working model used in this assay is a model based on the cell death of oligodendrocytes, a typical model for study the neurodegenerative phase of said demyelinating diseases.
Oligonucleotide design was carried out based on the secondary structure of the RNA, trying to prevent sequences presenting a high internal hybridization percentage, and with the aid of AO predict (http://www.cgb.ki.se/AOpredict/) computer software. To improve efficacy and capability to degrade RNA and to reduce side effects, last-generation oligonucleotides were designed, presenting two types of modifications; 2′-O-Methyl groups in the 6 first and last bases, and phosphorothiodated groups in the 8 intermediate bases. Furthermore, the oligonucleotides were labeled with Texas Red to be able to identify the cells transfected with said oligonucleotides.
Three antisense ODNs, for the purpose of identifying active sequences, plus a sense ODN, used as a negative control, were designed. To improve penetration thereof, the ODNs were transfected using the Lipofectin kit (Invitrogen).
24 hours after seeding, the oligodendrocytes were treated with a mixture of ODs at different concentrations coupled to the transfection kit liposomes.
After 24 hours, the cells were rinsed and were left another 24 hours before the experiment to ensure total blocking of the protein under study. Subsequently, the excitotoxic stimulus, AMPA 10 μM+CTZ 100 μM, was added during 15 minutes, and the protecting effect of the different ODNs after 6 hours was assessed.

[2] = treated 2 minutes (10 μM AMPA or 3 μM kainate), collected after treatment
[3] = treated 10 minutes (10 μM AMPA or 3 μM kainate), collected after treatment
[4] = treated 15 minutes (10 μM AMPA or 3 μM kainate), collected 60 minutes later
[5] = treatments with kainate (3 μM; 2, 10 and 15 minutes) taken together

Compound: C=C(C)[C@H]1CN[C@H](C(=O)O)[C@H]1CC(=O)O [Kainate, kainate]
- SLR (vs control) (dusp6 gene expression; Signal Log Ratio (log2), treated 2 minutes (10 μM AMPA or 3 μM kainate), collected after treatment): 0.6
- SLR (vs control) (dusp6 gene expression; Signal Log Ratio (log2), treated 10 minutes (10 μM AMPA or 3 μM kainate), collected after treatment): 0.6
- SLR (vs control) (dusp6 gene expression; Signal Log Ratio (log2), treated 15 minutes (10 μM AMPA or 3 μM kainate), collected 60 minutes later): 0.9
- Ratio (=2^SLR) (dusp6 gene expression; [2]): 1.5 fold
- Ratio (=2^SLR) (dusp6 gene expression; [3]): 1.5 fold
- Ratio (=2^SLR) (dusp6 gene expression; [4]): 1.9 fold
- Detection (dusp6 gene expression; [2]): P
- Signal (dusp6, probe set U42627_at) (dusp6 gene expression; [2]): 48.4
- Detection (dusp6 gene expression; [3]): P
- Signal (dusp6, probe set U42627_at) (dusp6 gene expression; [3]): 43.5
- Detection (dusp6 gene expression; [4]): P
- Signal (dusp6, probe set U42627_at) (dusp6 gene expression; [4]): 63.7
- SLR (vs control) (dusp6 gene expression; [5]): < 1
- dusp6 expression increase with regard to the control (dusp6 gene expression; [5]): less than two fold
- Change (dusp6 gene expression; [2]): I
- Change (dusp6 gene expression; [3]): I
- Change (dusp6 gene expression; [4]): I

Compound: N#CC(=C(/N)Sc1ccccc1N)/C(C#N)=C(/N)Sc1ccccc1N [UO126]
- oligodendroglial cell death induced by AMPA 10 μM+CTZ 100 μM in the presence of UO126 (oligodendrocytes; 15 min prior to and during 15 minutes stimulus, MTT 24 h later, p<0.05, n=3 in triplicate): increased three-fold
- oligodendroglial viability under control conditions (oligodendrocytes; MTT, 24 h later): did not affect oligodendroglial viability

Compound: ODN2: antisense ODN against dusp6; 2′-O-Methyl groups in 6 first and last bases, phosphorothiodated 8 intermediate bases, Texas Red labeled (antisense TCAACGTGGCCATCCCGGGC; sugars from the 5' end m6 d8 m6, backbone, methylation of C and T or U not given here; Texas Red label, phosphorothioates in eight intermediate bases)
- oligodendroglial death after stimulation with AMPA 10 μM+CTZ 100 μM [1]: significantly inhibited
- oligodendroglial death after stimulation with AMPA 10 μM+CTZ 100 μM ([1]; listed as SEQ ID NO:3): inhibit cell death of oligodendrocytes treated with AMPA

Compound: ODN3: antisense ODN against dusp6; 2′-O-Methyl groups in 6 first and last bases, phosphorothiodated 8 intermediate bases, Texas Red labeled (antisense CCAAGTGGACTCCCTGCAATC; sugars from the 5' end m6 d9 m6, backbone, methylation of C and T or U not given here; Texas Red label, phosphorothioates in eight intermediate bases)
- oligodendroglial death after stimulation with AMPA 10 μM+CTZ 100 μM [1]: significantly inhibited
- oligodendroglial death after stimulation with AMPA 10 μM+CTZ 100 μM ([1]; listed as SEQ ID NO:4): inhibit cell death of oligodendrocytes treated with AMPA
